In US20210355104A1, “ADENOSINE RECEPTOR BINDING COMPOUNDS” (Nikang Therapeuticsm Inc., priority 2018, published 2021) one finds IC50 data, which are given here for 25 molecules.

Values joined by “and” are separate entries in the source; they are usually repeats but may differ in a detail not shown here. Identical values can stand only once.

Adenosine A2A receptor, sequence (P29274 whole entry): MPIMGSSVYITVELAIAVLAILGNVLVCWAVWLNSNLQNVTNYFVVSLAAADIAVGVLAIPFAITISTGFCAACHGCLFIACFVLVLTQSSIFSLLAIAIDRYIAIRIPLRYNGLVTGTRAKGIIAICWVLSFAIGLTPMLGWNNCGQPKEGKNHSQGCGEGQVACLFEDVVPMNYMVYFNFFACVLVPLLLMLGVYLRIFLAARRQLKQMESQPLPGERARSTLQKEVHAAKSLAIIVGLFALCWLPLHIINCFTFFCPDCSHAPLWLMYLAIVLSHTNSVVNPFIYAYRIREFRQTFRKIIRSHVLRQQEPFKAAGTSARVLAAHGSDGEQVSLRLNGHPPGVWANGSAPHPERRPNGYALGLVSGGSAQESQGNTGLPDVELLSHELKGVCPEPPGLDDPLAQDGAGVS

The test deals with Adenosine A2A receptor (Homo sapiens, UniProt P29274). Briefly: cAMP assay in 293A cells stably expressing the adenosine A2A receptor (CGS21680 stimulation, HTRF). Conditions: 293A-A2AR cells, 0.1% BSA, 1 uM CGS; read-out: cAMP (nM) 0.1% BSA, 1 uM CGS. In kind it is cell-based. The arrangement: expressed in transfected cells; host or cells: 293A cells (Invitrogen, Cat# R705-07) infected with A2A-expressing lentivirus (custom packaged by Biosettia), puromycin selected. The protocol:
A 293A cell line (Invitrogen, Cat# R705-07) stably expressing the adenosine A2A receptor was generated in house. Briefly, 293A cells were seeded in 6-well plate and infected with A2A expressing lentivirus (custom packaged by Biosettia) and selected with puromycin (1 ug/ml). Cells survived selection were confirmed for A2A expression by RT-qPCR (RT Reagent: High-Capacity cDNA Reverse Transcription Kit, Applied Biosystems/Thermo Fisher Cat# 4368814, qPCR reagent: SYBR™ Green Master Mix, Applied Biosystems/Thermo Fisher Cat# 4309155). The cells were maintained in DMEM/F12 medium containing 10% FBS, 100 units/ml Penicillin, 100 μg/ml Streptomycin, and 1 μg/ml puromycin at 37° C., 5% CO2. 293A-A2AR cells were harvested on the day of assay and resuspended at 0.6 million cells/ml in DMEM/F12 with 0.1% BSA and 30 U/ml denosine deaminase(Roche, Cat #: 10102121001). Serial dilutions of compounds were prepared in DMEM/F12 with 0.1% BSA to a DMSO concentration of 0.6%. After 4 μl of compound dilutions were added, 4 μl suspended cells were dispensed into low-volume white 384-well plates (Greiner Bio-One). […] The assay plate was then incubated at room temperature for 30 min. 3 μl of d2 conjugated cAMP and 3 μl cryptate conjugated anti-cAMP antibody were then added. D2 conjugated cAMP and cryptate conjugated anti-cAMP antibody (Cisbio, Cat #: 62AM6PEC) were both prepared in cell lysis buffer according to the manufacturer's instruction. After 1 h incubation at room temperature, plates were read in CIARIOstar plate reader (BMG Labtech) using the HTRF detection mode.
With `CCc1nn(CC)nc1COc1nc(N)nc(-c2cccc(C#N)c2C)c1-c1cc(C)nc(C(F)F)c1` [Example 254, 3-(2-amino-6-((2,5-diethyl-2H-1,2,3-triazol-4-yl)methoxy)-5-(2-(difluoromethyl)-6-methylpyridin-4-yl)pyrimidin-4-yl)-2-methylbenzonitrile], the IC50 came to 23500 nM.
Consider `CCc1nnn(CC)c1COc1nc(N)nc(-c2cccc(C#N)c2C)c1-c1cc(C)nc(C(F)F)c1` [Example 255, 3-(2-amino-6-((1,4-diethyl-1H-1,2,3-triazol-5-yl)methoxy)-5-(2-(difluoromethyl)-6-methylpyridin-4-yl)pyrimidin-4-yl)-2-methylbenzonitrile], for which the IC50 was above 25000 nM.
The same measure for `CCc1c(COc2nc(N)nc(-c3cccc(C#N)c3C)c2-c2cc(C)nc(C(F)F)c2)nnn1CC` [Example 256, 3-(2-amino-6-((1,5-diethyl-1H-1,2,3-triazol-4-yl)methoxy)-5-(2-(difluoromethyl)-6-methylpyridin-4-yl)pyrimidin-4-yl)-2-methylbenzonitrile]: 2910 nM; for `Cc1cc(-c2c(OCc3ccn(CC(C)(C)O)n3)nc(N)nc2-c2ccc(F)cc2)cc(C(F)F)n1` [Example 258, 1-(3-(((2-amino-5-(2-(difluoromethyl)-6-methylpyridin-4-yl)-6-(4-fluorophenyl)pyrimidin-4-yl)oxy)methyl)-1H-pyrazol-1-yl)-2-methylpropan-2-ol]: 2390 nM.
To `Cc1cc(-c2c(OCc3cccc(N4CCC(C)(O)CC4)n3)nc(N)nc2-c2ccc(F)cc2)cc(C(F)F)n1` [Example 259, 1-(6-(((2-amino-5-(2-(difluoromethyl)-6-methylpyridin-4-yl)-6-(4-fluorophenyl)pyrimidin-4-yl)oxy)methyl)pyridin-2-yl)-4-methylpiperidin-4-ol] belongs above 25000 nM; to `Cc1cc(-c2c(OCc3cccc(N4CC(C)(O)C4)n3)nc(N)nc2-c2ccc(F)cc2)cc(C(F)F)n1` [Example 260, 1-(6-(((2-amino-5-(2-(difluoromethyl)-6-methylpyridin-4-yl)-6-(4-fluorophenyl)pyrimidin-4-yl)oxy)methyl)pyridin-2-yl)-3-methylazetidin-3-ol], 1360 nM.
`Cc1cc(-c2c(OCc3cc(C(C)(C)C#N)ccn3)nc(N)nc2-c2cccc(C#N)c2C)cc(C(F)F)n1` [Example 261, 3-(2-amino-6-((4-(2-cyanopropan-2-yl)pyridin-2-yl)methoxy)-5-(2-(difluoromethyl)-6-methylpyridin-4-yl)pyrimidin-4-yl)-2-methylbenzonitrile]: the IC50 was determined as 2190 nM.
The same measure for `Cc1cc(-c2c(OCc3nnn[nH]3)nc(N)nc2-c2ccc(F)cc2)cc(C(F)F)n1` [Example 269, 4-((1H-tetrazol-5-yl)methoxy)-5-(2-(difluoromethyl)-6-methylpyridin-4-yl)-6-(4-fluorophenyl)pyrimidin-2-amine]: above 25000 nM; for `Cc1cc(-c2c(OCc3cccc(C(C)O)n3)nc(N)nc2-c2ccc(F)cc2)cc(C(F)F)n1` (stereo not shown) [Example 272, 1-(6-(((2-amino-5-(2-(difluoromethyl)-6-methylpyridin-4-yl)-6-(4-fluorophenyl)pyrimidin-4-yl)oxy)methyl)pyridin-2-yl)ethan-1-ol]: 88 nM and 161 nM; for `Cc1cc(-c2c(OCc3cnccn3)nc(N)nc2-c2ccc(F)cc2)cc(C(F)F)n1` [Example 273, 5-(2-(difluoromethyl)-6-methylpyridin-4-yl)-4-(4-fluorophenyl)-6-(pyrazin-2-ylmethoxy)pyrimidin-2-amine]: 1660 nM.
The same measure for `Cc1cc(-c2c(OCc3cccc(C(=O)O)n3)nc(N)nc2-c2ccc(F)cc2)cc(C(F)F)n1` [Example 274, 6-(((2-amino-5-(2-(difluoromethyl)-6-methylpyridin-4-yl)-6-(4-fluorophenyl)pyrimidin-4-yl)oxy)methyl)picolinic acid]: 3210 nM; for `Cc1cc(-c2c(OCc3cccc(C4(C#N)CCOCC4)n3)nc(N)nc2-c2ccc(F)cc2)cc(C(F)F)n1` [Example 275, 4-(6-(((2-amino-5-(2-(difluoromethyl)-6-methylpyridin-4-yl)-6-(4-fluorophenyl)pyrimidin-4-yl)oxy)methyl)pyridin-2-yl)tetrahydro-2H-pyran-4-carbonitrile]: 321 nM.
As to `Cc1cc(-c2c(OCc3ccnc(C(C)(C)C#N)c3)nc(N)nc2-c2ccc(F)cc2)cc(C(F)F)n1` [Example 277, 2-(4-(((2-amino-5-(2-(difluoromethyl)-6-methylpyridin-4-yl)-6-(4-fluorophenyl)pyrimidin-4-yl)oxy)methyl)pyridin-2-yl)-2-methylpropanenitrile], the IC50 is 455 nM.
The same measure for `Cc1cc(-c2c(OC[C@H]3CC[C@@H](C(=O)O)CC3)nc(N)nc2-c2ccc(F)cc2)cc(C(F)F)n1` [Example 278, (1,4-cis)-4-(((2-amino-5-(2-(difluoromethyl)-6-methylpyridin-4-yl)-6-(4-fluorophenyl)pyrimidin-4-yl)oxy)methyl)cyclohexane-1-carboxylic acid]: 19900 nM; for `Cc1cc(-c2c(OC[C@H]3CC[C@H](C(=O)O)CC3)nc(N)nc2-c2ccc(F)cc2)cc(C(F)F)n1` [Example 279, (1,4-trans)-4-(((2-amino-5-(2-(difluoromethyl)-6-methylpyridin-4-yl)-6-(4-fluorophenyl)pyrimidin-4-yl)oxy)methyl)cyclohexane-1-carboxylic acid]: above 25000 nM.
Consider `Cc1cc(-c2c(OCc3ccn(C)c(=O)c3)nc(N)nc2-c2ccc(F)cc2)cc(C(F)F)n1` [Example 280, 4-(((2-amino-5-(2-(difluoromethyl)-6-methylpyridin-4-yl)-6-(4-fluorophenyl)pyrimidin-4-yl)oxy)methyl)-1-methylpyridin-2(1H)-one], for which the IC50 was determined as 5800 nM.
To `COCC(O)c1cccc(COc2nc(N)nc(-c3ccc(F)cc3)c2-c2cc(C)nc(C(F)F)c2)n1` (stereo not shown) [Example 281, 1-(6-(((2-amino-5-(2-(difluoromethyl)-6-methylpyridin-4-yl)-6-(4-fluorophenyl)pyrimidin-4-yl)oxy)methyl)pyridin-2-yl)-2-methoxyethan-1-ol] belongs 609 nM; to `Cc1cc(-c2c(OCc3cccc(N4CCCC4)n3)nc(N)nc2-c2ccc(F)cc2)cc(C(F)F)n1` [Example 283, 5-(2-(difluoromethyl)-6-methylpyridin-4-yl)-4-(4-fluorophenyl)-6-((6-(pyrrolidin-1-yl)pyridin-2-yl)methoxy)pyrimidin-2-amine], 1170 nM; to `Cc1cc(-c2c(OCc3ccncc3)nc(N)nc2-c2ccc(F)cc2)cc(C(F)F)n1` [Example 286, 5-(2-(difluoromethyl)-6-methylpyridin-4-yl)-4-(4-fluorophenyl)-6-(pyridin-4-ylmethoxy)pyrimidin-2-amine], 1800 nM.
To `Cc1cc(-c2c(OCc3ccnc(C(C)(C)O)c3)nc(N)nc2-c2ccc(F)cc2)cc(C(F)F)n1` [Example 287, 2-(4-(((2-amino-5-(2-(difluoromethyl)-6-methylpyridin-4-yl)-6-(4-fluorophenyl)pyrimidin-4-yl)oxy)methyl)pyridin-2-yl)propan-2-ol] belongs 835 nM; to `CCc1nn(C[C@@H](O)CO)nc1COc1nc(N)nc(-c2ccc(F)cc2)c1-c1cc(C)nc(C(F)F)c1` [Example 288, (R)-3-(4-(((2-amino-5-(2-(difluoromethyl)-6-methylpyridin-4-yl)-6-(4-fluorophenyl)pyrimidin-4-yl)oxy)methyl)-5-ethyl-2H-1,2,3-triazol-2-yl)propane-1,2-diol], 2390 nM; to `CCc1c(COc2nc(N)nc(-c3ccc(F)cc3)c2-c2cc(C)nc(C(F)F)c2)nnn1C[C@@H](O)CO` [Example 289, (R)-3-(4-(((2-amino-5-(2-(difluoromethyl)-6-methylpyridin-4-yl)-6-(4-fluorophenyl)pyrimidin-4-yl)oxy)methyl)-5-ethyl-1H-1,2,3-triazol-1-yl)propane-1,2-diol], 2090 nM.
To `CCc1nnn(C[C@@H](O)CO)c1COc1nc(N)nc(-c2ccc(F)cc2)c1-c1cc(C)nc(C(F)F)c1` [Example 290] belongs 1310 nM; to `Cc1cc(-c2c(OCc3nnn(CC(C)(C)O)n3)nc(N)nc2-c2ccc(F)cc2)cc(C(F)F)n1` [Example 291, 1-(5-(((2-amino-5-(2-(difluoromethyl)-6-methylpyridin-4-yl)-6-(4-fluorophenyl)pyrimidin-4-yl)oxy)methyl)-2H-tetrazol-2-yl)-2-methylpropan-2-ol], 5490 nM.
Consider `Cc1cc(-c2c(OCc3nnnn3CC(C)(C)O)nc(N)nc2-c2ccc(F)cc2)cc(C(F)F)n1` [Example 292, 1-(5-(((2-amino-5-(2-(difluoromethyl)-6-methylpyridin-4-yl)-6-(4-fluorophenyl)pyrimidin-4-yl)oxy)methyl)-1H-tetrazol-1-yl)-2-methylpropan-2-ol], for which the IC50 was 708 nM.
